The results in this text go back to ChEMBL document CHEMBL3868637, “Treatment of HIV Infections with HIV Integrase Inhibitors” (ACS Med Chem Lett, 2017).

Data set [1] in a line: Cytotoxicity against human MT4 cells assessed as reduction in cell viability measured after 5 days by CellTiter-Glo assay. Format: toxicity, cell-based. (Cellular ATP, detected with luciferase, serves as a proxy for viable cell number.)
Data set [2] can be described thus: Inhibition of HIV 3B integrase infected in human MT4 cells assessed as reduction in viral replication after 5 days by CellTiter-Glo assay. It is filed as cell-based. Conditions: Human immunodeficiency virus 1, 3B, MT4, 120 h.

Usually CC50 stands for the concentration that lowers cell viability or growth by half. The term EC50 denotes the concentration at which the effect is half-maximal. As for `O=C(NCc1c(F)cc(F)cc1F)c1cn2c(c(O)c1=O)C(=O)N1CCCC[C@]13COCC[C@H]23`, the CC50 at 120 h in data set [1] amounted to 33600 nM. Also, in data set [2], the EC50 is 1.94 nM.

As to `O=C(NCc1ccc(F)c(Cl)c1F)c1cn2c(c(O)c1=O)C(=O)N1CCS[C@]13COCC[C@H]23`, in data set [1], the CC50 at 120 h is 10800 nM. The concentration for a half-maximal effect (EC50) in data set [2] was 1.2 nM.

In the case of `COc1c2n(cc(C(=O)NCc3ccc(F)c(Cl)c3F)c1=O)[C@H]1CCC[C@]13OCCN3C2=O`, the CC50 at 120 h in data set [1] is 4940 nM. Further, the EC50 in data set [2] came to 2.53 nM.

For `C[C@H]1CCO[C@]23CCC[C@H]2n2cc(C(=O)NCc4ccc(F)c(Cl)c4F)c(=O)c(O)c2C(=O)N13`, the CC50 at 120 h in data set [1] stood at 17500 nM. The EC50 in data set [2] was determined as 11.8 nM.

Consider `O=C(NCc1ccc(F)c(Cl)c1F)c1cn2c(c(O)c1=O)C(=O)N1CC=CC[C@]13CCOC[C@H]23`, for which the CC50 at 120 h in data set [1] was found to be 8020 nM. Moreover, the concentration giving a half-maximal response (EC50) in data set [2] was 4.62 nM.

In the case of `C[C@@H]1CO[C@@]23CCOC[C@@H]2n2cc(C(=O)NCc4ccc(F)c(Cl)c4F)c(=O)c(O)c2C(=O)N13`, in data set [1], the cytotoxic concentration (CC50) at 120 h came out at 7530 nM. Also, in data set [2], the EC50 came to 1.82 nM.
